Source: ChEMBL document CHEMBL3046819, “Synthesis and antimicrobial activity of new pyridine derivatives-I” (2011)

How the values were obtained:
Type in all cases: functional
Conditions in all cases: read-out: IZ
Escherichia coli [1] = assay: Antibacterial activity against Escherichia coli ATCC 25922 at 200 ug/ml by cup-plate method
Escherichia coli [2] = assay: Antibacterial activity against Escherichia coli ATCC 25922 at 100 ug/ml by cup-plate method
Staphylococcus aureus [3] = assay: Antibacterial activity against Staphylococcus aureus ATCC 9144 at 200 ug/ml by cup-plate method
Pseudomonas aeruginosa [4] = assay: Antibacterial activity against Pseudomonas aeruginosa ATCC 9027 at 100 ug/ml by cup-plate method
Bacillus subtilis [5] = assay: Antibacterial activity against Bacillus subtilis ATCC 6633 at 100 ug/ml by cup-plate method
Bacillus subtilis [6] = assay: Antibacterial activity against Bacillus subtilis ATCC 6633 at 200 ug/ml by cup-plate method
Staphylococcus aureus [7] = assay: Antibacterial activity against Staphylococcus aureus ATCC 9144 at 100 ug/ml by cup-plate method
Pseudomonas aeruginosa [8] = assay: Antibacterial activity against Pseudomonas aeruginosa ATCC 9027 at 200 ug/ml by cup-plate method
Candida albicans [9] = assay: Antifungal activity against Candida albicans ATCC 10231 at 100 ug/ml by cup-plate method
Candida albicans [10] = assay: Antifungal activity against Candida albicans ATCC 10231 at 200 ug/ml by cup-plate method

In the case of CC1(C)S[C@@H]2[C@H](NC(=O)[C@H](N)c3ccccc3)C(=O)N2[C@H]1C(=O)O [AMPICILLIN], the zone of inhibition at 200 µg/mL (Escherichia coli [1]) is reported as 30 mm, the zone of inhibition at 100 µg/mL (Escherichia coli [2]) is reported as 18 mm and the zone of inhibition at 200 µg/mL (Staphylococcus aureus [3]) is reported as 28 mm. The zone of inhibition at 100 µg/mL (Pseudomonas aeruginosa [4]) was 18 mm, the zone of inhibition at 100 µg/mL (Bacillus subtilis [5]) was 17 mm and the zone of inhibition at 200 µg/mL (Bacillus subtilis [6]) was 30 mm. It also gave a zone of inhibition at 100 µg/mL (Staphylococcus aureus [7]) of 15 mm and a zone of inhibition at 200 µg/mL (Pseudomonas aeruginosa [8]) of 31 mm.
Work on CC1(C)S[C@@H]2[C@H](NC(=O)Cc3ccccc3)C(=O)N2[C@H]1C(=O)O [PENICILLIN G] yielded a zone of inhibition at 200 µg/mL (Escherichia coli [1]) of 25 mm, a zone of inhibition at 100 µg/mL (Escherichia coli [2]) of 14 mm and a zone of inhibition at 200 µg/mL (Staphylococcus aureus [3]) of 21 mm. The zone of inhibition at 100 µg/mL (Pseudomonas aeruginosa [4]) was 13 mm, the zone of inhibition at 100 µg/mL (Bacillus subtilis [5]) was 14 mm and the zone of inhibition at 200 µg/mL (Bacillus subtilis [6]) was 25 mm. It also gave a zone of inhibition at 100 µg/mL (Staphylococcus aureus [7]) of 12 mm and a zone of inhibition at 200 µg/mL (Pseudomonas aeruginosa [8]) of 22 mm.
In the case of O=C(c1cccnc1Nc1nc2cc([N+](=O)[O-])ccc2s1)N1CCN(CCO)CC1, the zone of inhibition at 200 µg/mL (Escherichia coli [1]) is reported as 8 mm, the zone of inhibition at 100 µg/mL (Escherichia coli [2]) is reported as 4 mm and the zone of inhibition at 200 µg/mL (Staphylococcus aureus [3]) is reported as 11 mm. For the same compound, the zone of inhibition at 100 µg/mL (Candida albicans [9]) was 2 mm, the zone of inhibition at 200 µg/mL (Candida albicans [10]) was 4 mm and the zone of inhibition at 100 µg/mL (Pseudomonas aeruginosa [4]) was 7 mm. The zone of inhibition at 100 µg/mL (Bacillus subtilis [5]) was 8 mm, the zone of inhibition at 200 µg/mL (Bacillus subtilis [6]) was 8 mm and the zone of inhibition at 100 µg/mL (Staphylococcus aureus [7]) was 6 mm. The zone of inhibition at 200 µg/mL (Pseudomonas aeruginosa [8]) was 7 mm.
Compound C[C@@H]1[C@H](O)[C@@H](C)/C=C/C=C/C=C/C=C/C=C/C=C/C=C/[C@H](O[C@@H]2O[C@H](C)[C@@H](O)[C@H](N)[C@@H]2O)C[C@@H]2O[C@](O)(C[C@@H](O)C[C@@H](O)[C@H](O)CC[C@@H](O)C[C@@H](O)CC(=O)O[C@H]1C)C[C@H](O)[C@H]2C(=O)O [AMPHOTERICIN B] has a zone of inhibition at 100 µg/mL (Candida albicans [9]) of 8 mm and a zone of inhibition at 200 µg/mL (Candida albicans [10]) of 18 mm.
O=C(c1cccnc1Nc1nc2cc([N+](=O)[O-])ccc2s1)N1CCNC(Cl)C1Cl (configuration not stated) was tested, and the zone of inhibition at 200 µg/mL (Escherichia coli [1]) was 5 mm, the zone of inhibition at 100 µg/mL (Escherichia coli [2]) was 4 mm and the zone of inhibition at 200 µg/mL (Staphylococcus aureus [3]) was 9 mm. It also gave a zone of inhibition at 100 µg/mL (Candida albicans [9]) of 1 mm, a zone of inhibition at 200 µg/mL (Candida albicans [10]) of 4 mm and a zone of inhibition at 100 µg/mL (Pseudomonas aeruginosa [4]) of 5 mm. It also gave a zone of inhibition at 100 µg/mL (Bacillus subtilis [5]) of 8 mm, a zone of inhibition at 200 µg/mL (Bacillus subtilis [6]) of 7 mm and a zone of inhibition at 100 µg/mL (Staphylococcus aureus [7]) of 6 mm. It also gave a zone of inhibition at 200 µg/mL (Pseudomonas aeruginosa [8]) of 6 mm.
O=C(c1cccnc1Nc1nc2ccc(Cl)cc2s1)N1CCN(CCO)CC1 showed a zone of inhibition at 200 µg/mL (Escherichia coli [1]) of 10 mm, a zone of inhibition at 100 µg/mL (Escherichia coli [2]) of 6 mm and a zone of inhibition at 200 µg/mL (Staphylococcus aureus [3]) of 9 mm. It also gave a zone of inhibition at 100 µg/mL (Candida albicans [9]) of 0 mm, a zone of inhibition at 200 µg/mL (Candida albicans [10]) of 1 mm and a zone of inhibition at 100 µg/mL (Pseudomonas aeruginosa [4]) of 7 mm. The zone of inhibition at 100 µg/mL (Bacillus subtilis [5]) was 7 mm, the zone of inhibition at 200 µg/mL (Bacillus subtilis [6]) was 9 mm and the zone of inhibition at 100 µg/mL (Staphylococcus aureus [7]) was 8 mm. It also gave a zone of inhibition at 200 µg/mL (Pseudomonas aeruginosa [8]) of 10 mm.
Work on COc1ccc2nc(Nc3ncccc3C(=O)N3CCNC(Cl)C3Cl)sc2c1 (configuration not stated) yielded a zone of inhibition at 200 µg/mL (Escherichia coli [1]) of 9 mm, a zone of inhibition at 100 µg/mL (Escherichia coli [2]) of 8 mm and a zone of inhibition at 200 µg/mL (Staphylococcus aureus [3]) of 6 mm. The zone of inhibition at 100 µg/mL (Candida albicans [9]) was 4 mm, the zone of inhibition at 200 µg/mL (Candida albicans [10]) was 6 mm and the zone of inhibition at 100 µg/mL (Pseudomonas aeruginosa [4]) was 4 mm. It also gave a zone of inhibition at 200 µg/mL (Bacillus subtilis [6]) of 2 mm, a zone of inhibition at 100 µg/mL (Staphylococcus aureus [7]) of 5 mm and a zone of inhibition at 200 µg/mL (Pseudomonas aeruginosa [8]) of 7 mm.
With O=C(c1cccnc1Nc1nc2cc(Cl)ccc2s1)N1CCNC(Cl)C1Cl (configuration not stated) the zone of inhibition at 200 µg/mL (Escherichia coli [1]) was 3 mm, the zone of inhibition at 100 µg/mL (Escherichia coli [2]) was 2 mm and the zone of inhibition at 200 µg/mL (Staphylococcus aureus [3]) was 0 mm. For the same compound, the zone of inhibition at 100 µg/mL (Candida albicans [9]) was 1 mm, the zone of inhibition at 200 µg/mL (Candida albicans [10]) was 2 mm and the zone of inhibition at 100 µg/mL (Pseudomonas aeruginosa [4]) was 0 mm. For the same compound, the zone of inhibition at 100 µg/mL (Bacillus subtilis [5]) was 5 mm, the zone of inhibition at 200 µg/mL (Bacillus subtilis [6]) was 5 mm and the zone of inhibition at 100 µg/mL (Staphylococcus aureus [7]) was 0 mm. For the same compound, the zone of inhibition at 200 µg/mL (Pseudomonas aeruginosa [8]) was 2 mm.
In the case of O=C(c1cccnc1Nc1nc2ccc(Cl)cc2s1)N1CCNC(Cl)C1Cl (configuration not stated), the zone of inhibition at 200 µg/mL (Escherichia coli [1]) is reported as 9 mm, the zone of inhibition at 100 µg/mL (Escherichia coli [2]) is reported as 7 mm and the zone of inhibition at 200 µg/mL (Staphylococcus aureus [3]) is reported as 10 mm. The zone of inhibition at 100 µg/mL (Candida albicans [9]) was 0 mm, the zone of inhibition at 200 µg/mL (Candida albicans [10]) was 1 mm and the zone of inhibition at 100 µg/mL (Pseudomonas aeruginosa [4]) was 8 mm. For the same compound, the zone of inhibition at 100 µg/mL (Bacillus subtilis [5]) was 5 mm, the zone of inhibition at 200 µg/mL (Bacillus subtilis [6]) was 6 mm and the zone of inhibition at 100 µg/mL (Staphylococcus aureus [7]) was 7 mm. The zone of inhibition at 200 µg/mL (Pseudomonas aeruginosa [8]) was 8 mm.
